Here are results for two molecules from patent US20090068158A1, “THYMIDYLATE KINASE MUTANTS AND USES THEREOF” (priority 2005, published 2009).

Usually IC50 stands for the point on the concentration scale where inhibition reaches its midpoint.

The test system of data set [1] is Jurkat cells. As to the kind of experiment: AZT sensitivity of LV-tmpk-transduced Jurkat cells (MTT cell viability assay). It counts as cell-based, human. To be noted: Homo sapiens, 120 h, LV-tmpk mutant transduced Jurkat cells, AZT 0-100 μM, 5 days, read-out: IC50 of AZT for killing of transduced cells. The method, then:
Transduced Jurkat cells and the single-cell clones were seeded in 96 well plates (2×10^5/well) in 200 μl of medium containing increasing concentrations of AZT (0, 1, 10 and 100 μM). The medium was changed daily. […] Data are expressed as mean±standard error of mean (SEM).
To examine the AZT-mediated celikilling activity of tmpk cDNA, each of transduced cells were incubated with the increasing concentration of AZT. After incubating both non-transduced and LV-transduced cells with AZT for […], cell viability was determined using MTT assay (FIG. 4A).
Transduced Jurkat cells and single-cell clones were seeded in 96 well plates (2×10^5 cells/well) in 200 μl of the RPMI medium described above with increasing concentrations of AZT (0, 0.1, 1, 10, 100 μM, and 1 mM). The medium was changed daily. After 4 days of culture, cell viability was determined by using Cell Titer 96 Aqueous One Solution Cell Proliferation Assay kit (Promega, Madison, Wis.).
In general terms: Tetrazolium assays rely on reduction of a dye to a coloured formazan, in cell work by metabolically active cells.

The subject of data set [2] is Jurkat cells. Put plainly: HPLC determination of intracellular AZT metabolites in cells treated with 100 μM AZT. Format: cell-based, human. The settings on record: non-transduced Jurkat cells, 100 μM AZT for 36 h. As to the method: The cells were cultured in the presence of 100 μM AZT for 36 hrs. 10^7 cells were homogenized by sonication in 100 μl of 5% (w/v) trichloroacetic acid. The supernatant is collected after homogenate had been centrifuged at 10,000×g for 15 min at 4° C. The trichloroacetic acid was removed by extraction with an equal volume of 20% tri-n-octylamine in pentane. The neutralized aqueous fraction is directly injected into HPLC. Separation of AZT and its metabolites was performed on a C18 column (Waters) with a mobile phase composed of 0.2 M phosphate buffer containing 4 mM tetrabutylammonium hydrogen sulfate (pH 7.5) and acetonitrile in the ratio of 97:3 (v/v). The mobile phase was pumped at a flow rate of 1.5 ml/min. The UV absorbance was monitored at 270 nm. Five million cell equivalents were injected and analyzed in triplicate.
Cells were cultured in the presence of 100 μM AZT for 36 h. 10^7 cells were homogenized by sonication in 100 μl of 5% (w/v) trichloroacetic acid (TCA). The supernatant was collected after centrifugation at 10,000×g for 15 min at 4° C. TCA was removed by extraction with an equal volume of 20% tri-n-octylamine in pentane. The neutralized aqueous fraction was directly injected into the HPLC machine (Waters, Milford. MA). Separation of AZT and its metabolites were performed on a C18 column (Waters), with a mobile phase composed of 0.2 M phosphate buffer containing 4 mM tetrabutylammonium hydrogen sulfate (pH 7.5) and acetonitrile in the ratio of 97:3 (v/v)^48 at a flow rate of 1.5 ml/min. The UV absorbance was monitored at 270 nm. Standards for each AZT-metabolite (AZT-MP, AZT-DP, and AZT-TP) were purchased from Moravek Biochemicals (Brea, Calif.). Five million cell equivalents were injected and analyzed in triplicate.

In data set [3] the test system is Jurkat cells. Put plainly: AZT sensitivity in LV-TMPK (Lentigen) transduced Jurkat cells. It counts as cell-based, human. The settings on record: increasing concentrations of AZT. As to the method: The function of tmpk was tested by assessing sensitivity to AZT (FIG. 21).
Data set [4] is described as follows: Enzymatic activity of tmpk mutants for AZT-MP. Format: biochemical, human.
For data set [5] the following is noted: relative to wild-type tmpk; cited from earlier work.

With `Cc1cn([C@H]2C[C@H](N=[N+]=[N-])[C@@H](CO)O2)c(=O)[nH]c1=O` [AZT, Zidovudine, reference compound], the IC50 in the data set on Jurkat cells [1] amounted to 2000 nM. Besides, the “intracellular ratio of AZT-TP to AZT-MP in non-transduced cells” value in the data set on Jurkat cells [2] is given as 0.02. In the data set with Jurkat cells [3], the “AZT sensitivity of transduced cells (in words)” value was “dose dependent killing”.

B1: F105Y+R200A: modified human tmpk combining mutations F105Y and R200A (protein, UniProt P23919 2-212, looked up, variant F105Y R200A)
Thymidylate kinase: AARRGALIVLEGVDRAGKSTQSRKLVEALCAAGHRAELLRFPERSTEIGKLLSSYLQKKSDVEDHSVHLLFSANRWEQVPLIKEKLSQGVTLVVDRYAFSGVAYTGAKENFSLDWCKQPDVGLPKPDLVLFLQLQLADAAKRGAFGHERYENGAFQERALRCFHQLMKDTTLNWKMVDASKSIEAVHEDIRVLSEDAIATATEKPLGELWK
For B1, in data set [4], the “enzymatic activity / catalytic conversion compared to wild-type tmpk (in words)” value is given as “superior enzymatic activity”. Besides, in data set [5], the “enhanced activity for AZT-MP” value is reported as “approximately 200 fold”.
